The compounds below were run against EGFR (UniProt P00533). Details: concentration not given here.
EGFR, sequence (P00533 whole entry, looked up): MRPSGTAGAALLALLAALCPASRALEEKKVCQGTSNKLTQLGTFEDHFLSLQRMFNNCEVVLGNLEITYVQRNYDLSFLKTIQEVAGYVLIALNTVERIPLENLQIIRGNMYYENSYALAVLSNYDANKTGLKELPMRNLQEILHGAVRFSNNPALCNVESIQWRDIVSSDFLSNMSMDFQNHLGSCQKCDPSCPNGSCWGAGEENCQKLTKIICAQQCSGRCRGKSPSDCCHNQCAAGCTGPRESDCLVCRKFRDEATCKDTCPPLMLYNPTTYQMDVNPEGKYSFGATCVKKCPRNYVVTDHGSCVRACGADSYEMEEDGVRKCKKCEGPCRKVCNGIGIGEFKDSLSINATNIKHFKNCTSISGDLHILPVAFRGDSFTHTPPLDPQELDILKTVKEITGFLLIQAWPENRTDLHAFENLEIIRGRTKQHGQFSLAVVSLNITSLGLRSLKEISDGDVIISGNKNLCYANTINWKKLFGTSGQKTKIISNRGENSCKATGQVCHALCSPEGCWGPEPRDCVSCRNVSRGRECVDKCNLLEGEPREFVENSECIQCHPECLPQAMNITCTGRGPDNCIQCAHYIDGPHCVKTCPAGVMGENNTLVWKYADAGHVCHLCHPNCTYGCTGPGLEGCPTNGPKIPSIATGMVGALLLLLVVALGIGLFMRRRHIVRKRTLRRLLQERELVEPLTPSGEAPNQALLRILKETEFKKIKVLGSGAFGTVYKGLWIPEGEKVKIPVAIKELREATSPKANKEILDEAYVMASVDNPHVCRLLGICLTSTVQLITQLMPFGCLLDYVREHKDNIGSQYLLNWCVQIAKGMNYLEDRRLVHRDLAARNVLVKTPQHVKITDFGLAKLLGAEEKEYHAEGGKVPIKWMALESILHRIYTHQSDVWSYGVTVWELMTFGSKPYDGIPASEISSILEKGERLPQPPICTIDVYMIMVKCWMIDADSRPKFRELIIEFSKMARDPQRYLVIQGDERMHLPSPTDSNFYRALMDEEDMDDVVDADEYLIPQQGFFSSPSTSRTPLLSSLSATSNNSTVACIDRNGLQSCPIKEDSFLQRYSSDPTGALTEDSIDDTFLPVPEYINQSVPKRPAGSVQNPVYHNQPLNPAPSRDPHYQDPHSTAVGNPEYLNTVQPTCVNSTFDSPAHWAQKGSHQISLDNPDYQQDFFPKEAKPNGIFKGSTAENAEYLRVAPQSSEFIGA

| inhibition [%] | SMILES |
| --- | --- |
| 5.84 | C=CC(=O)Nc1ccc(OC)c(C(=O)Nc2cccc(C(O)c3ccccc3)c2)c1 (centres undefined) |
| 48.5 | CCC(=O)Nc1ccc(O)c(C(=O)Nc2ccc(Oc3ccccc3)cc2)c1 |
| 46.6 | CCC(=O)Nc1ccc(O)c(C(=O)Nc2cccc(C(=O)N(CC)CC)c2)c1 |
| 1.59 | C=CC(=O)Nc1ccc(OC)c(C(=O)Nc2cccc(Oc3ccccc3)c2)c1 |

Source: the Kinase Knowledgebase extract (Sharma et al. 2016)
